This passage reports logP results from the SangsterLogP compilation.

Structures are written as SMILES.

The data set can be described thus: method code SF-TN, from DOI: 10.1021/jm00251a007, PMID: 4151492.

For `CC(C)NCC(O)COc1cccc(OCC(O)CNC(C)C)c1` (stereo unspecified), the logP was 0.73.

The molecule `CC(C)NCC(O)COc1cc(OCC(O)CNC(C)C)c2ccccc2c1` (stereo unspecified) yielded a logP of 0.99.

In the case of `CC(C)NCC(O)COc1cccc2c(OCC(O)CNC(C)C)cccc12` (stereo unspecified), the logP was 0.98.

With `CC(C)NCC(O)COc1ccccc1OCC(O)CNC(C)C` (stereo unspecified), the lipophilicity (logP) is 0.63.

In turn, `CC(C)NCC(O)COc1ccc(OCC(O)CNC(C)C)cc1` (stereo unspecified) returned a logP of 0.67.

`CC(C)NCC(O)COc1ccccc1` (stereo unspecified): the logP was found to be 1.76.

The molecule `CC(C)NCC(O)COc1ccc2c(OCC(O)CNC(C)C)cccc2c1` (stereo unspecified) yielded a logP of 0.87.

Consider `CC(C)NCC(O)COc1ccc(OCC(O)CNC(C)C)c2ccccc12` (stereo unspecified), for which the logP was determined as 0.93.

For `CC(C)NCC(O)COc1cccc2cccc(OCC(O)CNC(C)C)c12` (stereo unspecified), the logP was determined as 1.37.

The molecule `CC(C)NCC(O)COc1ccc2ccccc2c1OCC(O)CNC(C)C` (stereo unspecified) returned a lipophilicity (logP) of 1.07.

For `CC(C)NCC(O)COc1ccccc1-c1ccccc1OCC(O)CNC(C)C` (stereo unspecified), the logP was 0.97.
